# Tested on: Amaranthus palmeri (AMAPA)
# Assay: Post-emergence efficacy, glasshouse
# Assay type: in vivo
# Details: 1000 g/Ha, after 13 days, 100=total damage to plant, 0=no damage to plant
# Protocol: (§1) Seeds of a variety of test species were shown in standard soil in pots. After cultivation for 14 days (post-emergence) under controlled conditions in a glasshouse (at 24/16° C., day/night; 14 hours light; 65% humidity), the plants were sprayed with an aqueous spray solution derived from the dissolution of the technical active ingredient for each of compounds 1 to 26 from Table A above, in a small amount of acetone and a special solvent and emulsifier mixture referred to as IF50 (11.12% Emulsogen EL360 TM+44.44% N-methylpyrrolidone+44.44% Dowanol DPM glycol ether), to create a 50 g/I solution which was then diluted to required concentration using 0.25% or 1% Empicol ESC70 (Sodium lauryl ether sulphate)+1% ammonium sulphate in water as diluent. These spray test compositions are described as composition numbers C1 to C26, with the numerical value corresponding to the compound number from Table A.
# (§2) The test plants were then grown in a glasshouse under controlled conditions (at 24/16° C., day/night; 14 hours light; 65% humidity) and watered twice daily. After 13 days the test was evaluated (100=total damage to plant; 0=no damage to plant).
# (§3) Ipomoea hederacea (IPOHE), Euphorbia heterophylla (EPHHL), Chenopodium album (CHEAL), Amaranthus palmeri (AMAPA), Lolium perenne (LOLPE), Digitaria sanguinalis (DIGSA), Eleusine indica (ELEIN), Echinochloa crus-galli (ECHCG), Setaria faberi (SETFA)
row,SMILES,Control of weed species AMAPA
1,COCCOP(=O)([O-])c1c[n+](C)nc2ccccc12 [Composition C10],100
2,CC(C)COP(=O)([O-])c1c[n+](C)nc2ccccc12 [Composition C26],100
3,COP(=O)([O-])c1c[n+](C)nc2cc(C(F)(F)F)ccc12 [Composition C20],40
4,C[n+]1cc(P(=O)([O-])Oc2ccccc2)c2ccccc2n1 [Composition C11],100
5,C[n+]1cc(P(=O)([O-])OCC2CC2)c2ccccc2n1 [Composition C7],90
6,COc1ccc2n[n+](C)cc(P(=O)([O-])OC)c2c1 [Composition C16],100
7,CCOP(=O)(O)c1c[n+](C)nc2ccccc12.[Cl-] [Composition C3],90
8,CC(C)OP(=O)([O-])c1c[n+](C)nc2ccccc12 [Composition C8],100
9,COP(=O)([O-])c1c[n+](C)nc2c(C)cccc12 [Composition C15],40

# Tested on: Chenopodium album (CHEAL)
# Assay: Post-emergence efficacy, glasshouse
# Assay type: in vivo
# Details: 1000 g/Ha, after 13 days, 100=total damage to plant, 0=no damage to plant
# Protocol: as §1, §2, §3
row,SMILES,Control of weed species CHEAL
1,COCCOP(=O)([O-])c1c[n+](C)nc2ccccc12 [Composition C10],100
2,CC(C)COP(=O)([O-])c1c[n+](C)nc2ccccc12 [Composition C26],90
3,COP(=O)([O-])c1c[n+](C)nc2cc(C(F)(F)F)ccc12 [Composition C20],40
4,C[n+]1cc(P(=O)([O-])Oc2ccccc2)c2ccccc2n1 [Composition C11],70
5,C[n+]1cc(P(=O)([O-])OCC2CC2)c2ccccc2n1 [Composition C7],90
6,COc1ccc2n[n+](C)cc(P(=O)([O-])OC)c2c1 [Composition C16],90
7,CCOP(=O)(O)c1c[n+](C)nc2ccccc12.[Cl-] [Composition C3],100
8,CC(C)OP(=O)([O-])c1c[n+](C)nc2ccccc12 [Composition C8],100
9,COP(=O)([O-])c1c[n+](C)nc2c(C)cccc12 [Composition C15],50

# Tested on: Digitaria sanguinalis (DIGSA)
# Assay: Post-emergence efficacy, glasshouse
# Assay type: in vivo
# Details: 1000 g/Ha, after 13 days, 100=total damage to plant, 0=no damage to plant
# Protocol: as §1, §2, §3
row,SMILES,Control of weed species DIGSA
1,COCCOP(=O)([O-])c1c[n+](C)nc2ccccc12 [Composition C10],90
2,CC(C)COP(=O)([O-])c1c[n+](C)nc2ccccc12 [Composition C26],60
3,COP(=O)([O-])c1c[n+](C)nc2cc(C(F)(F)F)ccc12 [Composition C20],20
4,C[n+]1cc(P(=O)([O-])Oc2ccccc2)c2ccccc2n1 [Composition C11],70
5,C[n+]1cc(P(=O)([O-])OCC2CC2)c2ccccc2n1 [Composition C7],100
6,COc1ccc2n[n+](C)cc(P(=O)([O-])OC)c2c1 [Composition C16],80
7,CCOP(=O)(O)c1c[n+](C)nc2ccccc12.[Cl-] [Composition C3],100
8,CC(C)OP(=O)([O-])c1c[n+](C)nc2ccccc12 [Composition C8],100
9,COP(=O)([O-])c1c[n+](C)nc2c(C)cccc12 [Composition C15],70

# Tested on: Echinochloa crus-galli (ECHCG)
# Assay: Post-emergence efficacy, glasshouse
# Assay type: in vivo
# Details: 1000 g/Ha, after 13 days, 100=total damage to plant, 0=no damage to plant
# Protocol: as §1, §2, §3
row,SMILES,Control of weed species ECHCG
1,COCCOP(=O)([O-])c1c[n+](C)nc2ccccc12 [Composition C10],70
2,CC(C)COP(=O)([O-])c1c[n+](C)nc2ccccc12 [Composition C26],60
3,COP(=O)([O-])c1c[n+](C)nc2cc(C(F)(F)F)ccc12 [Composition C20],10
4,C[n+]1cc(P(=O)([O-])Oc2ccccc2)c2ccccc2n1 [Composition C11],20
5,C[n+]1cc(P(=O)([O-])OCC2CC2)c2ccccc2n1 [Composition C7],80
6,COc1ccc2n[n+](C)cc(P(=O)([O-])OC)c2c1 [Composition C16],90
7,CCOP(=O)(O)c1c[n+](C)nc2ccccc12.[Cl-] [Composition C3],70
8,CC(C)OP(=O)([O-])c1c[n+](C)nc2ccccc12 [Composition C8],100
9,COP(=O)([O-])c1c[n+](C)nc2c(C)cccc12 [Composition C15],50

# Tested on: Eleusine indica (ELEIN)
# Assay: Post-emergence efficacy, glasshouse
# Assay type: in vivo
# Details: 1000 g/Ha, after 13 days, 100=total damage to plant, 0=no damage to plant
# Protocol: as §1, §2, §3
row,SMILES,Control of weed species ELEIN
1,COCCOP(=O)([O-])c1c[n+](C)nc2ccccc12 [Composition C10],100
2,CC(C)COP(=O)([O-])c1c[n+](C)nc2ccccc12 [Composition C26],90
3,COP(=O)([O-])c1c[n+](C)nc2cc(C(F)(F)F)ccc12 [Composition C20],10
4,C[n+]1cc(P(=O)([O-])Oc2ccccc2)c2ccccc2n1 [Composition C11],80
5,C[n+]1cc(P(=O)([O-])OCC2CC2)c2ccccc2n1 [Composition C7],100
6,COc1ccc2n[n+](C)cc(P(=O)([O-])OC)c2c1 [Composition C16],100
7,CCOP(=O)(O)c1c[n+](C)nc2ccccc12.[Cl-] [Composition C3],90
8,CC(C)OP(=O)([O-])c1c[n+](C)nc2ccccc12 [Composition C8],100
9,COP(=O)([O-])c1c[n+](C)nc2c(C)cccc12 [Composition C15],80

# Tested on: Euphorbia heterophylla (EPHHL)
# Assay: Post-emergence efficacy, glasshouse
# Assay type: in vivo
# Details: 1000 g/Ha, after 13 days, 100=total damage to plant, 0=no damage to plant
# Protocol: as §1, §2, §3
row,SMILES,Control of weed species EPHHL
1,COCCOP(=O)([O-])c1c[n+](C)nc2ccccc12 [Composition C10],100
2,CC(C)COP(=O)([O-])c1c[n+](C)nc2ccccc12 [Composition C26],100
3,COP(=O)([O-])c1c[n+](C)nc2cc(C(F)(F)F)ccc12 [Composition C20],30
4,C[n+]1cc(P(=O)([O-])Oc2ccccc2)c2ccccc2n1 [Composition C11],60
5,C[n+]1cc(P(=O)([O-])OCC2CC2)c2ccccc2n1 [Composition C7],100
6,COc1ccc2n[n+](C)cc(P(=O)([O-])OC)c2c1 [Composition C16],90
7,CCOP(=O)(O)c1c[n+](C)nc2ccccc12.[Cl-] [Composition C3],100
8,CC(C)OP(=O)([O-])c1c[n+](C)nc2ccccc12 [Composition C8],100
9,COP(=O)([O-])c1c[n+](C)nc2c(C)cccc12 [Composition C15],100

# Tested on: Ipomoea hederacea (IPOHE)
# Assay: Post-emergence efficacy, glasshouse
# Assay type: in vivo
# Details: 1000 g/Ha, after 13 days, 100=total damage to plant, 0=no damage to plant
# Protocol: as §1, §2, §3
row,SMILES,Control of weed species IPOHE
1,COCCOP(=O)([O-])c1c[n+](C)nc2ccccc12 [Composition C10],80
2,CC(C)COP(=O)([O-])c1c[n+](C)nc2ccccc12 [Composition C26],60
3,COP(=O)([O-])c1c[n+](C)nc2cc(C(F)(F)F)ccc12 [Composition C20],60
4,C[n+]1cc(P(=O)([O-])Oc2ccccc2)c2ccccc2n1 [Composition C11],70
5,C[n+]1cc(P(=O)([O-])OCC2CC2)c2ccccc2n1 [Composition C7],100
6,COc1ccc2n[n+](C)cc(P(=O)([O-])OC)c2c1 [Composition C16],70
7,CCOP(=O)(O)c1c[n+](C)nc2ccccc12.[Cl-] [Composition C3],100
8,CC(C)OP(=O)([O-])c1c[n+](C)nc2ccccc12 [Composition C8],100
9,COP(=O)([O-])c1c[n+](C)nc2c(C)cccc12 [Composition C15],20

# Tested on: Lolium perenne (LOLPE)
# Assay: Post-emergence efficacy, glasshouse
# Assay type: in vivo
# Details: 1000 g/Ha, after 13 days, 100=total damage to plant, 0=no damage to plant
# Protocol: as §1, §2, §3
row,SMILES,Control of weed species LOLPE
1,COCCOP(=O)([O-])c1c[n+](C)nc2ccccc12 [Composition C10],20
2,CC(C)COP(=O)([O-])c1c[n+](C)nc2ccccc12 [Composition C26],40
3,COP(=O)([O-])c1c[n+](C)nc2cc(C(F)(F)F)ccc12 [Composition C20],10
4,C[n+]1cc(P(=O)([O-])Oc2ccccc2)c2ccccc2n1 [Composition C11],30
5,C[n+]1cc(P(=O)([O-])OCC2CC2)c2ccccc2n1 [Composition C7],60
6,COc1ccc2n[n+](C)cc(P(=O)([O-])OC)c2c1 [Composition C16],50
7,CCOP(=O)(O)c1c[n+](C)nc2ccccc12.[Cl-] [Composition C3],50
8,CC(C)OP(=O)([O-])c1c[n+](C)nc2ccccc12 [Composition C8],50
9,COP(=O)([O-])c1c[n+](C)nc2c(C)cccc12 [Composition C15],20

# Tested on: Setaria faberi (SETFA)
# Assay: Post-emergence efficacy, glasshouse
# Assay type: in vivo
# Details: 1000 g/Ha, after 13 days, 100=total damage to plant, 0=no damage to plant
# Protocol: as §1, §2, §3
row,SMILES,Control of weed species SETFA
1,COCCOP(=O)([O-])c1c[n+](C)nc2ccccc12 [Composition C10],100
2,CC(C)COP(=O)([O-])c1c[n+](C)nc2ccccc12 [Composition C26],90
3,COP(=O)([O-])c1c[n+](C)nc2cc(C(F)(F)F)ccc12 [Composition C20],10
4,C[n+]1cc(P(=O)([O-])Oc2ccccc2)c2ccccc2n1 [Composition C11],50
5,C[n+]1cc(P(=O)([O-])OCC2CC2)c2ccccc2n1 [Composition C7],90
6,COc1ccc2n[n+](C)cc(P(=O)([O-])OC)c2c1 [Composition C16],80
7,CCOP(=O)(O)c1c[n+](C)nc2ccccc12.[Cl-] [Composition C3],90
8,CC(C)OP(=O)([O-])c1c[n+](C)nc2ccccc12 [Composition C8],90
9,COP(=O)([O-])c1c[n+](C)nc2c(C)cccc12 [Composition C15],50

# Reference: US20220248678A1, “HERBICIDAL COMPOUNDS” (SYNGENTA CROP PROTECTION AG, priority 2019, published 2022)
